Measurements from patent US20200268864A1, “CANCER VACCINE COMPOSITIONS AND METHODS FOR USING SAME TO TREAT CANCER” (Dana-Farber Cancer Institute, Inc., priority 2017, published 2020).
Entries after “also recorded” stand apart in the source; their conditions may differ.

Test system: PBM tumors (Trp53−/−; Brca1−/−; c-Myc)
Assay: Orthotopic PBM tumor allograft growth and survival (bioluminescence)
Format: in vivo, mouse
Description: All animal experiments described in this study were performed according to the animal protocols approved by the DFCI Institutional Animal Care and Use Committee. Brca1^loxP/loxP [FVB/N] mice, bearing loxP sites in introns 4 and 13 of the Brca1 gene, and Trp53^loxP/loxP[FVB/N] mice bearing loxP in introns 2 and 10 of the p53 gene, were obtained from Dr. Jos Jonkers's laboratory (Netherlands Cancer Institute, Amsterdam, The Netherlands). These mice were intercrossed through multiple generations to create a colony of homozygous Trp53^loxP/loxP/Brca1^loxP/loxP double conditional knockout mice. Ovaries were harvested from 8-week-old female Trp53^loxP/loxP/Brca1^loxP/loxP mice. The ovaries were washed twice with phosphate-buffered and incubated in DMEM/F12 (Ham's) medium containing collagenase and dispase (stem cell technologies) for 40 min at 37° C. The epithelial cells were pelleted by centrifugation at 800×g and cultured in DMEM/F12 (Life Technologies) supplemented with 4% (vol/vol) FBS, 1% penicillin/streptomycin, 10 ng/mL EGF, 5 μg/mL insulin, 5 Cpg/mL transferrin, and 5 ng/mL sodium selenite. Ovarian surface epithelial (OSE) cells were cultured for 48 hr and then introduced with Adeno-Cre (University of Iowa) and lentiviruses expressing C-Myc gene (Addgene #36980) or control GFP. After two days of infection in vitro, OSE cells are aggregated and implanted into recipient mice. About 5×10^5 OSE cells (Trp53^−/−; Brca1^−/−; c-Myc) were injected into the right ovarian bursal cavities of 6- to 7-week-old female nude mice. In each mouse, the left ovarian bursa was injected with GFP-expressing OSE cells (Trp53^−/−; Brca1^−/−; GFP). PBM (Trp53^−/−; Brca1^−/−; c-Myc) ovarian tumors developed within three to six months after implantation of the genetically engineered OSE cells. The primary ovarian tumors were digested and orthotopically transplanted to FVB/NJ mice. The PPM GEM model (Trp53^−/−; Pten^−/−; c-Myc) was developed with OSE cells isolated from homozygous Trp53^loxP/loxP/Pten^loxP/loxP(FVB/NJ) double conditional knockout mice using the same strategy for generation of the PBM GEM model described above. For histological analysis, tumor pieces were fixed in 10% Formalin overnight and transferred to 70% ethanol. Embedding, sectioning and H&E staining was performed by scientists at the Harvard rodent histopathology core facility. The histological characteristics of high grade ovarian tumor were confirmed by two independent pathologists at Harvard Medical School.
Single cells were obtained by digestion of primary ovarian tumors in collagenase buffer and then cultured in MOT media (DMEM/F12, 0.6% FBS, 10 ng/ml EGF, hydrocortisone 1 μg/ml, cholera toxin 1 ng/ml, 100 μg/ml penicillin-streptomycin, 5 μM Y27632). […] The endpoints were determined by tumor burden and ascites. […]

## O=C(c1cc(Cc2n[nH]c(=O)c3ccccc23)ccc1F)N1CCN(C(=O)C2CC2)CC1 [olaparib, Olaparib]
PBM tumor-bearing FVB mice, olaparib 50 mg/kg daily i.p., anti-PD-1 250 μg/mouse i.p. every 3 days
  tumor growth / tumor progression (tumor burden by bioluminescence): significantly delayed tumor progression; also recorded: delayed tumor growth; also recorded: effectively inhibit the growth
PBM tumors in Rag1−/− vs wild-type FVB mice
  therapeutic effect of olaparib in Rag1−/− host mice: partially abrogated
mouse, in vivo
  survival of PBM tumor-bearing mice: significantly prolonged the survival; also recorded: eventually succumbed to the disease
